Measured values: patent US12577231B2, “Androgen receptor PROTACS” (GlaxoSmithKline Intellectual Property Development Limited, priority 2023, dated 2026)

Target: T1, Androgen receptor T878A (Homo sapiens, UniProt P10275, T878A)
T1 construct: expressed in transfected cells; host or cells: A549, transduced, puromycin selected
T1 sequence (P10275 1-920 T878A): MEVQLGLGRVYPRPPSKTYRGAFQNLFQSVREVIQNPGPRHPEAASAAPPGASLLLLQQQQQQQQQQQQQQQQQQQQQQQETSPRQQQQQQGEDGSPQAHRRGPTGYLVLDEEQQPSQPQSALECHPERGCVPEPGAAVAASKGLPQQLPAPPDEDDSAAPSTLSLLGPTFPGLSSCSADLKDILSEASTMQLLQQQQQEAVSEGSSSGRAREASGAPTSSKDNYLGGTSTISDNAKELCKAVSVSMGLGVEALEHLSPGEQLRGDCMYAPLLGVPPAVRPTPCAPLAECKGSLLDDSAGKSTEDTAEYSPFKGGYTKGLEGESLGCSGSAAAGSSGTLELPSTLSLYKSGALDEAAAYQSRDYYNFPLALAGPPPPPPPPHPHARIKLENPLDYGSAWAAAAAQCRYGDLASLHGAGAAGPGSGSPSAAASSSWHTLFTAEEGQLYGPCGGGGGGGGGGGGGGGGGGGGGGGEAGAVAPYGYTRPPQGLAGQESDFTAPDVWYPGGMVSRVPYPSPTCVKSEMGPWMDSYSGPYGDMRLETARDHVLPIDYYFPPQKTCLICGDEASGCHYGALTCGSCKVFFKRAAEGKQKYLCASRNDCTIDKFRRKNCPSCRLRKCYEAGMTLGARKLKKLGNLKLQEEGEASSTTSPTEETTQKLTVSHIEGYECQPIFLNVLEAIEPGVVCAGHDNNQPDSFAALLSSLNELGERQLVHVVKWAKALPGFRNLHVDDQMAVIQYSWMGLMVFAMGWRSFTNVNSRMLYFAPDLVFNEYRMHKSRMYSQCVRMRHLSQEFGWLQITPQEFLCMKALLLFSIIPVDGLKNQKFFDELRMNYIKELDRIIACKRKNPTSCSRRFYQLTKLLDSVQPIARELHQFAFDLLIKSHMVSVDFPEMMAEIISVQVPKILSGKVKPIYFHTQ
Experiment: Degradation of overexpressed Androgen Receptor in A549 cells (HiBiT), T878A
Type: cell-based
Conditions: A549 cells overexpressing AR T878A, cycloheximide, 24 hours
Procedure: A549 cells were transduced to express wild type androgen receptor and Androgen receptor containing the following mutations (L702H, H875Y W742C W742L F877L, T878A and T878A/H875Y) with HiBiT tags. Transduced cells following puromycin selection were maintained in a humidified incubator (at 37° C. and 5% CO2 in the DMEM medium supplemented with 1% (v/v) Pen/Strep, 1% (v/v) Glutamax and 10% (v/v) FBS. A549 cells expressing each AR construct were detached from plate and counted. Cell suspensions at density 0.2 million per mL were prepared. Cell suspension was supplemented with 100 μg/mL of cycloheximide to block protein synthesis. Cells were preincubated with cycloheximide for 1 hr before seeding. Cells were seeded onto 384-well plate at density of 5,000 in 25 μL per well. A two fold serial dilution of test compounds, starting from 1 μM (row A) in 2-fold serial dilution series across the column using Tecan D300e dispenser. […]
Nano-Glo HiBiT Lytic reagent was prepared by adding LgBiT protein and Nano-Glo® substrate to lytic buffer pre-equilibrated at room temperature following manufacturer protocol (https://www.promega.co.uk/resources/protocols/technical-manuals/101/nanoglo-luciferase-assay-system-protocol). […] The plates were then centrifuged (100×G, 1 min) and incubated on shaker for 10 mins before taking readings on Pherastar Luminescence microplate reader. […]

- Summary pXC50: 8.81
SMILES: COc1cc(O[C@H]2C(C)(C)[C@H](NC(=O)c3ccc(N4CCC(CN5CCC(n6ncc7c(N8CCC(=O)NC8=O)nccc76)CC5)CC4)c(F)c3)C2(C)C)ccc1C#N [Example 20, N-((1r,3r)-3-(4-Cyano-3-methoxyphenoxy)-2,2,4,4-tetramethylcyclobutyl)-4-(4-((4-(4-(2,4-dioxotetrahydropyrimidin-1(2H)-yl)-1H-pyrazolo[4,3-c]pyridin-1-yl)piperidin-1-yl)methyl)piperidin-1-yl)-3-fluorobenzamide]
